Measurements from US11833162B2, “Macrocyclic derivatives, process for preparing same and pharmaceutical compositions containing same” (LES LABORATOIRES SERVIER, priority 2017, dated 2023).

Experiments:
[1] = tested on: cleaved (activated) form of caspase 3 in RS4; 11 tumour lysates; assay: Quantification of the cleaved form of caspase 3 in vivo (MSD ELISA) in RS4; 11 xenograft; parameters: species or system mice (SCID strain); key: ratio of cleaved caspase 3, treated vs control mice; conditions: oral, 2 hours' treatment
Protocol: The ability of the compounds of the invention to activate caspase 3 is evaluated in a xenograft model of RS4; 11 leukaemia cells. 1×10^7 RS4; 11 cells are grafted sub-cutaneously into immunosuppressed mice (SCID strain). 25 to 30 days after the graft, the animals are treated orally with the various compounds. After 2 hours' treatment, the tumour masses are recovered and lysed, and the cleaved (activated) form of caspase 3 is quantified in the tumour lysates. This quantification is carried out using the “Meso Scale Discovery (MSD) ELISA platform” test, which specifically assays the cleaved form of caspase 3. It is expressed in the form of an activation factor corresponding to the ratio between the quantity of cleaved caspase 3 in the treated mice divided by the quantity of cleaved caspase 3 in the control mice.

Bcl-2 protein = Bcl-2 protein (histag-Bcl-2, UniProtKB P10415) (Homo sapiens, UniProt P10415); assay: Inhibition of Bcl-2 by the fluorescence polarisation technique; type: binding; conditions: for IC50: fluorescence polarisation, 2 hours incubation, read-out: IC50 (μM) Bcl-2 FP
Chain of Bcl-2 protein (P10415 whole entry): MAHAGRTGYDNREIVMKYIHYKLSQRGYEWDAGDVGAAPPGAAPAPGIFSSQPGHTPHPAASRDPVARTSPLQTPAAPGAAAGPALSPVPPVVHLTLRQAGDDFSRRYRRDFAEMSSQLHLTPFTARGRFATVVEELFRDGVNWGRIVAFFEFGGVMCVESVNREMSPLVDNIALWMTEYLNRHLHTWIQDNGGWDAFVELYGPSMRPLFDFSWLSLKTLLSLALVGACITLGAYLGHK
Protocol: The fluorescence polarisation tests were carried out on microplates (384 wells). The Bcl-2 protein, labelled (histag-Bcl-2 such that Bcl-2 corresponds to the UniProtKB® primary accession number: P10415), at a final concentration of 5×10^−9M, is mixed with a fluorescent peptide (Fluorescein-REIGAQLRRMADDLNAQY), at a final concentration of 1.00×10^−9M in a buffer solution (Hepes 10 mM, NaCl 150 mM, Tween20 0.05%, pH 7.4), in the presence or absence of increasing concentrations of test compounds. After incubation for 2 hours, the fluorescence polarisation is measured.

[2] = tested on: RS4; 11 leukaemia tumour line; assay: In vitro cytotoxicity, Microculture Tetrazolium Assay (MTT); type: cell-based; conditions: Homo sapiens, RS4-11, 48 h, 11 cells, 48 hours exposure
Protocol: The cytotoxicity studies were carried out on the RS4; 11 leukaemia tumour line.
The cells are distributed onto microplates and exposed to the test compounds for 48 hours.
The cell viability is then quantified by a colorimetric assay, the Microculture Tetrazolium Assay (Cancer Res., 1987, 47, 939-942).

SMILES	IC50 (Bcl-2 protein)	Activation factor ± SEM (versus control) ([1]; 25 mg/kg, PEG/EtOH/Water)	IC50 [2]	other results
Cc1c(N2C(=O)c3cc(n(C)c3C)-c3cc(Cl)ccc3C(=O)N3CCCC(CCOc4cc(O)ccc42)C3)cc(C#N)n1C (stereo not shown) [Example 29, 4-[16-Chloro-3-hydroxy-19,20-dimethyl-13,22-dioxo-6,7,8,9,10,11,19,22-octahydro-13H,23H-8,12-methano-21,18-(metheno)dibenzo[b,j][1,4,8,13]oxatriazacyclo-nonadecin-23-yl]-1,5-dimethyl-1H-pyrrole-2-carbonitrile]			70.5 nM	Activation factor ± SEM (versus control) ([1]; 25 mg/kg, PEG/EtOH/Phosal): 13.3 ± 6.3; Activation factor ± SEM (versus control) ([1]; 50 mg/kg, PEG/EtOH/Phosal): 54.4 ± 9.7
Cc1c2cc(n1C)-c1cc(Cl)ccc1C(=O)N1CCC(CC1)COCCOCCOc1ncc(cn1)N(c1ccc(O)cc1)C2=O [Example 43, 6-Chloro-14-(4-hydroxyphenyl)-10,11-dimethyl-19,22,25-trioxa-1,10,14,17,32-pentaazapentacyclo[25.2.2.2˜15,18˜. 1˜9,12˜.0˜3,8˜]tetratriaconta-3,5,7,9(34),11,15,17,32-octaene-2,13-dione]			> 1880 nM	Bcl-2 FP, % at given concentration (Bcl-2 protein; @10 μM): 34.8% @10 μM
Cc1c2cc(n1C)-c1cc(Cl)ccc1C(=O)N1CCc3c(cccc3OCCN(C)CCOc3ncc(cn3)N(c3ccc(O)cc3)C2=O)C1 [Example 44, 10-Chloro-2-(4-hydroxyphenyl)-5,6,27-trimethyl-24,30-dioxa-2,6,15,27,32,35-hexaazahexacyclo[29.2.2.1˜4,7˜.1˜15,19˜.0˜8,13˜.0˜18,23˜]hepta-triaconta-1(33),4,7(37),8,10,12,18,20,22,31,34-undecaene-3,14-dione]	0.00497 µM		35.4 nM	

Continued, in another order:

IC50 (Bcl-2 protein)	SMILES	Activation factor ± SEM (versus control) ([1]; 25 mg/kg, PEG/EtOH/Water)	IC50 [2]	other results
0.0052 µM	Cc1c2cc(n1C)-c1cc(Cl)ccc1C(=O)N1CCc3c(cccc3OCCCc3c(cnn3C)N(c3ccc(O)cc3)C2=O)C1 [Example 6, 11-Chloro-4-(4-hydroxyphenyl)-1,7,8-trimethyl-4,16,17,23,24,25-hexahydro-1H,14H-15,18-methano-6,9-(metheno)dibenzo[b,h]pyrazolo[4,3-p]-[1,6,11,15]oxatriazacycloicosine-5,14(8H)-dione]	32.3 ± 9.1	26.6 nM	Activation factor ± SEM (versus control) ([1]; 12.5 mg/kg, PEG/EtOH/Watcr): 6.8 ± 4.2
0.00555 µM	Cc1c2cc(n1C)-c1cc(Cl)ccc1C(=O)N1CCc3c(cccc3OCCc3c(cnn3C)N(c3ccc(O)cc3)C2=O)C1 [Example 16, 11-chloro-4-(4-hydroxyphenyl)-1,7,8-trimethyl-1,4,16,17,23,24-hexahydro-14H-15,18-methano-6,9-(metheno)dibenzo[l,r]pyrazolo[3,4-d][1,6,10,15]oxatriaza-cyclononadecine-5,14(8H)-dione]	31.7 ± 2.9	53.3 nM	Activation factor ± SEM (versus control) ([1]; 50 mg/kg, PEG/EtOH/Water): 75.1 ± 13.2
0.00365 µM	Cc1c2cc(n1C)-c1cc(Cl)ccc1C(=O)N1CCc3c(cccc3OCCCc3c(cc(C#N)n3C)N(c3ccc(O)cc3)C2=O)C1 [Example 18, 11-Chloro-4-(4-hydroxyphenyl)-1,7,8-trimethyl-5,14-dioxo-4,5,8,16,17,23,24,25-octahydro-1H,14H-15,18-methano-6,9-(metheno)dibenzo[b,h]-pyrrolo[3,2-p][1,6,11,15]oxatriazacycloicosine-2-carbonitrile]		8.36 nM	Activation factor ± SEM (versus control) ([1]; 6.25 mg/kg, PEG/EtOH/Phosal): 7.8 ± 2.5; Activation factor ± SEM (versus control) ([1]; 12.5 mg/kg, PEG/EtOH/Phosal): 31.7 ± 6.0
